Measurements as given in US9682960B2 (priority 2013, dated 2017).
Several values for one entry are separate records, joined by “and”; a condition that tells them apart may be missing. Equal entries are not always repeated.

Key:
Human Androgen Receptor = Human Androgen Receptor (Homo sapiens (Human), UniProt P10275); assay: Androgen receptor assay: [3H]R1881 displacement, cytosol of HEK-293 cells transfected with hAR (hydroxylapatite assay); type: binding; settings: for Human Androgen Receptor Binding RBA (%) R1881 = 100: relative binding affinity; for times more potent than OH-flutamide on the human AR (RBA ratio): versus hydroxyflutamide
[1] = test system: Shionogi mouse mammary carcinoma cells; assay: In vitro androgenic/antiandrogenic activity: proliferation of Shionogi cells with or without DHT; type: cell-based; settings: for IC50: Mus musculus, read-out: Shionogi Antiandrogenic Activity IC50, DHT (0.3 nM)-stimulated cell number
[2] = test system: castrated (CX) immature male rats; assay: Systemic androgenic (agonistic) activity in orchidectomized (CX) immature male rats; type: in vivo, rat
[3] = 0.1 mg/rat/po, 7 days, bulbocavernosus muscles weight
[4] = 0.1 mg/rat/po, 7 days, seminal vesicles weight
[5] = 0.1 mg/rat/po, 7 days, ventral prostate weight

Sequence of Human Androgen Receptor (P10275 whole entry): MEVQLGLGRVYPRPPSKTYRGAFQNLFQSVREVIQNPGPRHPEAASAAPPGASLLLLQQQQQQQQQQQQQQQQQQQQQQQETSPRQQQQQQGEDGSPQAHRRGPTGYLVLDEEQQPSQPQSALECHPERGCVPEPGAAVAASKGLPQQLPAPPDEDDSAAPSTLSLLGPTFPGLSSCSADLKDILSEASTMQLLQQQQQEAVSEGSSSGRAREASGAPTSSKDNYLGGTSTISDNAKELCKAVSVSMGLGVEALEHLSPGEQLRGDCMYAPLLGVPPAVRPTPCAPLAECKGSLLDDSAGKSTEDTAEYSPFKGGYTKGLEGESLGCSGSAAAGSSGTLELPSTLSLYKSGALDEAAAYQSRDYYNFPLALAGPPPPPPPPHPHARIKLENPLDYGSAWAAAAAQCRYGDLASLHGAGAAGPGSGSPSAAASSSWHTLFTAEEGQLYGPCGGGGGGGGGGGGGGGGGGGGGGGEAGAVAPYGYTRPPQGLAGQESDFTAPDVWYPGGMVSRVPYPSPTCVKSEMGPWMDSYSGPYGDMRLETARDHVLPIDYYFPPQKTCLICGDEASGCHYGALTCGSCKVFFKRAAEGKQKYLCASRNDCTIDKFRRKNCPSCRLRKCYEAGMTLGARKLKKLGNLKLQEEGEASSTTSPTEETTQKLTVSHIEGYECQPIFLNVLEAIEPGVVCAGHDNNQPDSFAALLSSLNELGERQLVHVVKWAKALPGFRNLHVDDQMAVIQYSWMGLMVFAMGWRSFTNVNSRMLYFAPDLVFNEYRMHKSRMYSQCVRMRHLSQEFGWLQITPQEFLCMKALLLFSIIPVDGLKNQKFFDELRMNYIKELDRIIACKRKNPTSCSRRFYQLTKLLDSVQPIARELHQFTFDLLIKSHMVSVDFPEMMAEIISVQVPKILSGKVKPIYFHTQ

Row | SMILES | Human Androgen Receptor Binding RBA (%) R1881 = 100 (Human Androgen Receptor; transfected cells) | IC50 [1] | stimulation at 10^−7M on basal Shionogi cell proliferation (in words) ([1]; basal (no DHT), 10^−7M) | CX Agonistic activity % Stimulation Bulbo [2, 3] | CX Agonistic activity % Stimulation SV [2, 4] | CX Agonistic activity % Stimulation Prostate [2, 5] | Human Androgen Receptor Binding RBA (%) R1881 = 100 (Human Androgen Receptor; […]) | CX Agonistic activity % Stimulation Bulbo ([2]; 0.02 mg/rat po) | CX Agonistic activity % Stimulation Prostate ([2]; 0.02 mg/rat po) | CX Agonistic activity % Stimulation SV ([2]; 0.02 mg/rat po) | times more potent than OH-flutamide on the human AR (RBA ratio) (Human Androgen Receptor) | % of stimulation at 10^−7M on basal Shionogi cells ([1]; basal (no DHT), 10^−7M)
1 | CC1(C)C(=O)N(c2ccc(C#N)c(C(F)(F)F)c2)C(=S)N1CCCOc1ccc2c(ccc[n+]2[O-])c1 [EM-9028] | 25.3% | 0.0026 µM | none of these compounds has any activity | 1% | 2% | 2% |  |  |  |  |  | 
2 | Cc1c(N2C(=O)C(C)(C)N(CCCOc3ccc(-c4cc[n+]([O-])cc4)c(Cl)c3)C2=S)ccc(C#N)c1Cl [EM-9036] |  | > 0.1 µM |  |  |  |  | 131% | 142 (0.02 mg/rat) % | 24 (0.02 mg/rat) % | 24 (0.02 mg/rat) % |  | 
3 | Cc1ccc2cc(OCCCN3C(=O)N(c4ccc(C#N)c(C(F)(F)F)c4)C(=O)C3(C)C)ccc2n1 [EM-9090] |  | 0.0331 µM |  | 11% | 0% | 1% | 2.5% |  |  |  |  | 
4 | Cc1ccc2cc(OCCCN3C(=O)N(c4ccc(C#N)c(C(F)(F)F)c4)C(=O)C3(C)C)ccc2[n+]1[O-] [EM-9093] |  | 0.0231 µM |  | 9% | 0% | 0% | 0.6% |  |  |  |  | 
5 | Cc1c(N2C(=O)N(CCCOc3ccc(-c4ccncc4)c(F)c3)C(C)(C)C2=O)ccc(C#N)c1Cl [EM-9253] |  | 0.0299 µM |  | 114±18% and 114 ± 18 (n = 2) % | 18 ± 2 (n = 2) % | 34 ± 1 (n = 2) % | 125% |  |  |  | 595 times | 
6 | Cc1c(N2C(=O)N(CCCOc3ccc(-c4cc[n+]([O-])cc4)c(F)c3)C(C)(C)C2=O)ccc(C#N)c1Cl [EM-9254] | 38.8% | 0.0548 µM |  | 101 ± 5 (n = 3) % | 23 ± 1 (n = 3) % | 47 ± 6 (n = 3) % |  |  |  |  |  | 
7 | Cc1c(N2C(=O)N(CCCOc3ccc(-c4ccncc4)c(Cl)c3)C(C)(C)C2=O)ccc(C#N)c1Cl [EM-9290] | 197% | 0.0648 µM |  | 88±2% and 88 ± 12 (n = 2) % | 16 ± 2 (n = 2) % | 39 ± 6 (n = 2) % |  |  |  |  | 938 times | 25%
8 | Cc1c(N2C(=O)N(CCCOc3ccc(-c4cc[n+]([O-])cc4)c(Cl)c3)C(C)(C)C2=O)ccc(C#N)c1Cl [EM-9291] | 64.2% | 0.0755 µM |  | 91 ± 2 (n = 2) % | 21 ± 7 (n = 2) % | 47 ± 7 (n = 2) % |  |  |  |  |  | 
9 | Cc1c(N2C(=O)N(CCCOc3ccc(-c4ccncc4)cc3F)C(C)(C)C2=O)ccc(C#N)c1Cl [EM-9297] |  | 0.0728 µM |  | 120% | 26% | 31% | 101% |  |  |  |  | 
10 | Cc1c(N2C(=O)N(CCCOc3ccc(-c4ccncc4)cc3)C(C)(C)C2=O)ccc(C#N)c1Cl [EM-9300] |  | 0.0622 µM |  | 127 ± 8 (n = 2) % | 25 ± 2 (n = 2) % | 40 ± 3 (n = 2) % | 77.8% |  |  |  |  | 
11 | Cc1c(N2C(=O)N(CCCOc3ccc(-c4cc[n+]([O-])cc4)cc3F)C(C)(C)C2=O)ccc(C#N)c1Cl [EM-9301] |  | 0.0557 µM |  | 104 ± 17 (n = 2) % | 29 ± 2 (n = 2) % | 42 ± 1 (n = 2) % | 34.6% |  |  |  |  | 
12 | Cc1c(N2C(=O)N(CCCOc3ccc4ccc[n+]([O-])c4c3)C(C)(C)C2=O)ccc(C#N)c1Cl [EM-9302] |  | 0.11 µM |  | 57% | 8% | 29% | 1.3% |  |  |  |  | 
13 | Cc1c(N2C(=O)N(CCCOc3ccc(-c4cc[n+]([O-])cc4)cc3)C(C)(C)C2=O)ccc(C#N)c1Cl [EM-9305] |  | 0.0323 µM |  | 110 ± 5 (n = 2) % | 28 ± 3 (n = 2) % | 34 ± 5 (n = 2) % | 26.2% |  |  |  |  | 
14 | Cc1c(N2C(=O)N(CCCOc3ccc(-c4ccncc4)cc3C(F)(F)F)C(C)(C)C2=O)ccc(C#N)c1Cl [EM-9309] |  | 0.0669 µM |  | 107±9% and 107 ± 9 (n = 2) % | 24 ± 2 (n = 2) % | 36 ± 1 (n = 2) % | 157% |  |  |  | 748 times | 13%
15 | Cc1c(N2C(=O)N(CCCOc3ccc(-c4ccncc4Cl)cc3)C(C)(C)C2=O)ccc(C#N)c1Cl [EM-9310] |  | 0.06 µM |  | 109 ± 9 (n = 2) % | 18 ± 2 (n = 2) % | 44 ± 7 (n = 2) % | 92.8% |  |  |  |  | 
16 | Cc1c(N2C(=O)N(CCCOc3ccc(-c4ccncc4F)cc3)C(C)(C)C2=O)ccc(C#N)c1Cl [EM-9311] |  | > 0.1 µM |  | 119 ± 8 (n = 2) % | 24 ± 3 (n = 2) % | 39 ± 1 (n = 2) % | 89.0% |  |  |  |  | 
17 | Cc1c(N2C(=O)N(CCCOc3ccc(-c4cc[n+]([O-])cc4Cl)cc3)C(C)(C)C2=O)ccc(C#N)c1Cl [EM-9313] |  | > 0.1 µM |  | 88 ± 2 (n = 2) % | 14 ± 9 (n = 2) % | 36 ± 2 (n = 2) % | 34.1% |  |  |  |  | 
18 | Cc1c(N2C(=O)N(CCCOc3ccc(-c4cc[n+]([O-])cc4F)cc3)C(C)(C)C2=O)ccc(C#N)c1Cl [EM-9318] | 46.1% | 0.1 µM |  | 92 ± 27 (n = 2) % | 14 ± 9 (n = 2) % | 42 ± 3 (n = 2) % |  |  |  |  |  | 
19 | Cc1c(N2C(=O)N(CCCOc3ccc(-c4cc[n+]([O-])cc4)cc3C(F)(F)F)C(C)(C)C2=O)ccc(C#N)c1Cl [EM-9319] |  | 0.0978 µM |  | 110 ± 10 (n = 2) % | 17 ± 10 (n = 2) % | 39 ± 2 (n = 2) % | 9.6% |  |  |  |  | 
20 | Cc1c(N2C(=O)N(CCCOc3ccc(-c4ccncc4)c(C(F)(F)F)c3)C(C)(C)C2=O)ccc(C#N)c1Cl [EM-9333] |  | 0.073 µM |  | 93 ± 23 (n = 2) % | 19 ± 5 (n = 2) % | 38 ± 2 (n = 2) % | 64.1% |  |  |  |  | 
21 | Cc1c(N2C(=O)N(CCCOc3ccc(-c4cc[n+]([O-])cc4)c(C(F)(F)F)c3)C(C)(C)C2=O)ccc(C#N)c1Cl [EM-9334] |  | 0.0289 µM |  | 86% | 17% | 30% | 17.8% |  |  |  |  | 
